Results from patent US7494714B2, “Surfaces that resist the adsorption of biological species” (President & Fellows of Harvard College, priority 2000, dated 2009).

Columns and labels:
fibrinogen = molecular target: T1, fibrinogen (Bos taurus, UniProt P02672+P02676+P12799); test: SPR adsorption of fibrinogen to SAMs / grafted polymer films; type: binding, bovine; settings: for % Fiboff (percent decrease in adsorbed protein during 10 minute PBS wash) / dR/dton fibrinogen (maximum initial rate of adsorption) / % MLfib 3 min / % MLfib 30 min: mixed SAM —CONRR′/—CO2H; for % MLfib 3 min: 1 mg/mL fibrinogen flowed 3 min, relative to —CONH(CH2)10CH3/—CO2H SAM; for % MLfib 30 min: 1 mg/mL fibrinogen flowed 30 min; for % ML 30 min / dR/dt on / % ML 3 min: fibrinogen; for % ML 30 min / dR/dt on / % Fib off: single-component SAMs (a) and mixed SAMs (b); for % ML 3 min: single-component SAMs (a, RSH) and mixed SAMs (b, RNH2)
T1 sequence (P02672 20-615): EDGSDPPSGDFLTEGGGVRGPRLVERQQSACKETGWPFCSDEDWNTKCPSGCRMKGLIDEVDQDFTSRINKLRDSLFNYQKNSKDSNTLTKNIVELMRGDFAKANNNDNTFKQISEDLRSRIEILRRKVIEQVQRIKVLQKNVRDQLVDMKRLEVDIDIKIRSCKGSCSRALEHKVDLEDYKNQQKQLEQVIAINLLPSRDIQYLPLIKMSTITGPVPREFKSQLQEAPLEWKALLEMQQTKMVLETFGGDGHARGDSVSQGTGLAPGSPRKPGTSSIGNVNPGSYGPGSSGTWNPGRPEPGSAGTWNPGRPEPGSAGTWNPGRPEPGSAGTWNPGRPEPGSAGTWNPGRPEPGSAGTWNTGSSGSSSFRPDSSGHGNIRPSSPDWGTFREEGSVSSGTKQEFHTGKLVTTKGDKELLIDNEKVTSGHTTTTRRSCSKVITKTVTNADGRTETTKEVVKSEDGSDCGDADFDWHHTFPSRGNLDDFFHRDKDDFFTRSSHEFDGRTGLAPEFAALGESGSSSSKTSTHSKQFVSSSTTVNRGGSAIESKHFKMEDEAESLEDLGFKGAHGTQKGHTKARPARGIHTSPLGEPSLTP
T1 sequence (P02676 1-468): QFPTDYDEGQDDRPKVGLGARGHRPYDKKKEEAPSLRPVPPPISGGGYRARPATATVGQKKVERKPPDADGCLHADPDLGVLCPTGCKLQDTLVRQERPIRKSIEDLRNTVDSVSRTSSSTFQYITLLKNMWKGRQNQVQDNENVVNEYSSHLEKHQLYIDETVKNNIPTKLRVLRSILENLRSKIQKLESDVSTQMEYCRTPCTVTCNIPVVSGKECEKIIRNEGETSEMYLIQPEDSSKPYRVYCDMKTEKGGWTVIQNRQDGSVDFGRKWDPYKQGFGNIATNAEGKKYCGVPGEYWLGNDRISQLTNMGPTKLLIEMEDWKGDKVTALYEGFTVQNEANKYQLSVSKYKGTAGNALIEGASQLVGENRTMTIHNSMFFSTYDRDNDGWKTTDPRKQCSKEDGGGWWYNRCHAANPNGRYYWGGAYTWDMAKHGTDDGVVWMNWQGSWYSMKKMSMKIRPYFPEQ
T1 sequence (P12799 25-444): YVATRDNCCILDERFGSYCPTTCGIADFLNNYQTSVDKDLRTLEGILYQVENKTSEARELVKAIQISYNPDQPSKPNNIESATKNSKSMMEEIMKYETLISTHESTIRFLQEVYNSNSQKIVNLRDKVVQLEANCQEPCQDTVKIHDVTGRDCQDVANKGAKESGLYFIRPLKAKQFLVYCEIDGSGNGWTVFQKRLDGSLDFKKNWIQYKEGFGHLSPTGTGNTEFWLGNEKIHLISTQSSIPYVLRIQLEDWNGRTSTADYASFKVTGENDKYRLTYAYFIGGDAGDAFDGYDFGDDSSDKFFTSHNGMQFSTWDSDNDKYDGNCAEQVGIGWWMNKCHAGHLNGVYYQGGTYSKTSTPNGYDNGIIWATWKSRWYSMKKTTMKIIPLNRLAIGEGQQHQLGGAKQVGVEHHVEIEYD

lysozyme = lysozyme (Gallus gallus, UniProt P00698); test: SPR adsorption of lysozyme to SAMs / grafted polymer films; type: binding; settings: for % Lysoff (percent decrease in adsorbed protein during 10 minute PBS wash) / dR/dton lysozyme (maximum initial rate of adsorption) / % MLlys 3 min / % MLlys 30 min: mixed SAM —CONRR′/—CO2H; for % MLlys 3 min: 1 mg/mL lysozyme flowed 3 min; for % MLlys 30 min: 1 mg/mL lysozyme flowed 30 min; for % ML 3 min / dR/dt on: lysozyme; for % ML 3 min / dR/dt on / % Lys off: single-component SAMs (a) and mixed SAMs (b)
Sequence of lysozyme (P00698 19-147): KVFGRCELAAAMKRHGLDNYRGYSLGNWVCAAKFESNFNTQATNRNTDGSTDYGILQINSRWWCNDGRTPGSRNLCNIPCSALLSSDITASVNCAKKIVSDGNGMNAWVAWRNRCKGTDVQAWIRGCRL

## OCCOCCN1CCNCC1
fibrinogen
  % Fiboff (percent decrease in adsorbed protein during 10 minute PBS wash): 1.8 ± 0.1%
  dR/dton fibrinogen (maximum initial rate of adsorption): 54 ± 10 RU/sec
  % MLfib 3 min: 1.2 ± 0.1%
  % MLfib 30 min: 3.7 ± 0.0%
lysozyme
  % Lysoff (percent decrease in adsorbed protein during 10 minute PBS wash): 110 ± 5%
  dR/dton lysozyme (maximum initial rate of adsorption): 20 ± 2 RU/sec
  % MLlys 3 min: 4.5 ± 0.0%
  % MLlys 30 min: 27 ± 10%

## CNCCNC
fibrinogen
  % Fiboff (percent decrease in adsorbed protein during 10 minute PBS wash): 7.5 ± 0.4%
  dR/dton fibrinogen (maximum initial rate of adsorption): 77 ± 30 RU/sec
  % MLfib 3 min: 4.4 ± 0.8%
  % MLfib 30 min: 8.5 ± 0.0%
lysozyme
  % Lysoff (percent decrease in adsorbed protein during 10 minute PBS wash): 110 ± 5%
  dR/dton lysozyme (maximum initial rate of adsorption): 110 ± 60 RU/sec
  % MLlys 3 min: 4.3 ± 0.1%
  % MLlys 30 min: 7.8 ± 0.0%

## CC(=O)NCCN
fibrinogen
  % Fiboff (percent decrease in adsorbed protein during 10 minute PBS wash): 13 ± 1%
  dR/dton fibrinogen (maximum initial rate of adsorption): 50 ± 5 RU/sec
  % MLfib 3 min: 14 ± 1%
  % MLfib 30 min: 40 ± 2%
lysozyme
  % Lysoff (percent decrease in adsorbed protein during 10 minute PBS wash): 580 ± 20%
  dR/dton lysozyme (maximum initial rate of adsorption): 530 ± 120 RU/sec
  % MLlys 3 min: 1.4 ± 0.0%
  % MLlys 30 min: 5.4 ± 0.3%

## CN(C)C(=O)CN
fibrinogen
  % Fiboff (percent decrease in adsorbed protein during 10 minute PBS wash): 19 ± 0.2%
  dR/dton fibrinogen (maximum initial rate of adsorption): 202 ± 80 RU/sec
  % MLfib 3 min: 18 ± 0.5%
  % MLfib 30 min: 33 ± 0.5%
lysozyme
  % Lysoff (percent decrease in adsorbed protein during 10 minute PBS wash): 350 ± 10%
  dR/dton lysozyme (maximum initial rate of adsorption): 590 ± 270 RU/sec
  % MLlys 3 min: 7.2 ± 1%
  % MLlys 30 min: 15 ± 1%

## CNCC(=O)N(C)C
fibrinogen
  % Fiboff (percent decrease in adsorbed protein during 10 minute PBS wash): 28 ± 0.7%
  dR/dton fibrinogen (maximum initial rate of adsorption): 50 ± 23 RU/sec
  % MLfib 3 min: 1.0 ± 0.0%
  % MLfib 30 min: 9.1 ± 0.3%
lysozyme
  % Lysoff (percent decrease in adsorbed protein during 10 minute PBS wash): 740 ± 9%
  dR/dton lysozyme (maximum initial rate of adsorption): 290 ± 130 RU/sec
  % MLlys 3 min: 0.2 ± 0.1%
  % MLlys 30 min: 2.4 ± 0.3%

## NCC1COCCOCCOCCOCCOCCO1 (centres unmarked)
fibrinogen
  % Fiboff (percent decrease in adsorbed protein during 10 minute PBS wash): 9.7 ± 0.5%
  dR/dton fibrinogen (maximum initial rate of adsorption): 320 ± 110 RU/sec
  % MLfib 3 min: 44 ± 0.9%
  % MLfib 30 min: 59 ± 2.3%
lysozyme
  % Lysoff (percent decrease in adsorbed protein during 10 minute PBS wash): 14 ± 1.3%
  dR/dton lysozyme (maximum initial rate of adsorption): 75 ± 40 RU/sec
  % MLlys 3 min: 3.9 ± 0.3%
  % MLlys 30 min: 9.6 ± 0.5%

## C1COCCOCCOCCOCCOCCN1
fibrinogen
  % Fiboff (percent decrease in adsorbed protein during 10 minute PBS wash): 9.6 ± 0.9%
  dR/dton fibrinogen (maximum initial rate of adsorption): 45 ± 20 RU/sec
  % MLfib 3 min: 3.8 ± 0.7%
  % MLfib 30 min: 11 ± 0.3%
lysozyme
  % Lysoff (percent decrease in adsorbed protein during 10 minute PBS wash): 72 ± 0.7%
  dR/dton lysozyme (maximum initial rate of adsorption): 100 ± 50 RU/sec
  % MLlys 3 min: 2.1 ± 0.4%
  % MLlys 30 min: 6.0 ± 0.5%

## Nc1ccc(O[C@@H]2O[C@H](CO)[C@@H](O)[C@H](O)[C@H]2O)cc1
fibrinogen
  % Fiboff (percent decrease in adsorbed protein during 10 minute PBS wash): 38 ± 0.8%
  dR/dton fibrinogen (maximum initial rate of adsorption): 1200 ± 270 RU/sec
  % MLfib 3 min: 51 ± 1.8%
  % MLfib 30 min: 67 ± 0.9%
lysozyme
  % Lysoff (percent decrease in adsorbed protein during 10 minute PBS wash): 78 ± 1.7%
  dR/dton lysozyme (maximum initial rate of adsorption): 1200 ± 270 RU/sec
  % MLlys 3 min: 27 ± 3.3%
  % MLlys 30 min: 83 ± 2.3%

## N[C@H]1C(O)O[C@H](CO)[C@@H](O)[C@@H]1O (some centres unmarked)
fibrinogen
  % Fiboff (percent decrease in adsorbed protein during 10 minute PBS wash): 11 ± 0.0%
  dR/dton fibrinogen (maximum initial rate of adsorption): 210 ± 120 RU/sec
  % MLfib 3 min: 31 ± 0.7%
  % MLfib 30 min: 55 ± 1.1%
lysozyme
  % Lysoff (percent decrease in adsorbed protein during 10 minute PBS wash): 330 ± 0.2%
  dR/dton lysozyme (maximum initial rate of adsorption): 620 ± 280 RU/sec
  % MLlys 3 min: 7.8 ± 0.2%
  % MLlys 30 min: 25 ± 2.1%

## Nc1ccc(O[C@@H]2O[C@H](CO)[C@H](O)[C@H](O)[C@H]2O)cc1
fibrinogen
  % Fiboff (percent decrease in adsorbed protein during 10 minute PBS wash): 17 ± 0.7%
  dR/dton fibrinogen (maximum initial rate of adsorption): 570 ± 250 RU/sec
  % MLfib 3 min: 35 ± 5%
  % MLfib 30 min: 49 ± 2.3%
lysozyme
  % Lysoff (percent decrease in adsorbed protein during 10 minute PBS wash): 254 ± 10%
  dR/dton lysozyme (maximum initial rate of adsorption): 1300 ± 260 RU/sec
  % MLlys 3 min: 11 ± 1.5%
  % MLlys 30 min: 30 ± 3.3%

## Nc1ccc(O[C@@H]2O[C@H](CO)[C@@H](O[C@@H]3O[C@H](CO)[C@H](O)[C@H](O)[C@H]3O)[C@H](O)[C@H]2O)cc1
fibrinogen
  % Fiboff (percent decrease in adsorbed protein during 10 minute PBS wash): 7.4 ± 0.4%
  dR/dton fibrinogen (maximum initial rate of adsorption): 130 ± 80 RU/sec
  % MLfib 3 min: 17 ± 1.4%
  % MLfib 30 min: 32 ± 0.5%
lysozyme
  % Lysoff (percent decrease in adsorbed protein during 10 minute PBS wash): 190 ± 16%
  dR/dton lysozyme (maximum initial rate of adsorption): 290 ± 120 RU/sec
  % MLlys 3 min: 3.7 ± 0.1%
  % MLlys 30 min: 9.3 ± 0.4%

## NC[C@H](O)[C@H](O)[C@H](O)[C@@H](O)CO
fibrinogen
  % Fiboff (percent decrease in adsorbed protein during 10 minute PBS wash): 4.8 ± 2%
  dR/dton fibrinogen (maximum initial rate of adsorption): 820 ± 500 RU/sec
  % MLfib 3 min: 47 ± 12%
  % MLfib 30 min: 68 ± 7%
lysozyme
  % Lysoff (percent decrease in adsorbed protein during 10 minute PBS wash): 290 ± 3%
  dR/dton lysozyme (maximum initial rate of adsorption): 970 ± 400 RU/sec
  % MLlys 3 min: 13 ± 7%
  % MLlys 30 min: 20 ± 0.3%

## CNC[C@H](OC)[C@H](OC)[C@H](OC)[C@H](COC)OC
fibrinogen
  % ML 30 min: 2.9 ±1.4%
  dR/dt on: 50 ±50 RU/sec
  % ML 3 min: 0.8 ±0.5%
  % Fiboff (percent decrease in adsorbed protein during 10 minute PBS wash): 18 ± 2%
  dR/dton fibrinogen (maximum initial rate of adsorption): 50 ± 50 RU/sec
  % MLfib 3 min: 0.8 ± 0.5%
  % MLfib 30 min: 2.9 ± 1.4%
  % Fib off: 18 ±2%
lysozyme; footnote b (30 minutes)
  % ML 3 min: 6.1 ±4%
lysozyme
  % ML 3 min: 0.4 ±0.4%
  dR/dt on: 100 ±70 RU/sec
  % Lysoff (percent decrease in adsorbed protein during 10 minute PBS wash): 17 ± 40%
  dR/dton lysozyme (maximum initial rate of adsorption): 100 ± 70 RU/sec
  % MLlys 3 min: 0.4 ± 0.4%
  % MLlys 30 min: 6.1 ± 4%
  % Lys off: 17 ±40%

## N#CCC(N)=C(C#N)C#N
fibrinogen
  % Fiboff (percent decrease in adsorbed protein during 10 minute PBS wash): 11 ± 0.0%
  dR/dton fibrinogen (maximum initial rate of adsorption): 260 ± 70 RU/sec
  % MLfib 3 min: 34 ± 1.1%
  % MLfib 30 min: 58 ± 3%
lysozyme
  % Lysoff (percent decrease in adsorbed protein during 10 minute PBS wash): 370 ± 20%
  dR/dton lysozyme (maximum initial rate of adsorption): 1900 ± 400 RU/sec
  % MLlys 3 min: 13 ± 0.3%
  % MLlys 30 min: 28 ± 3.7%

## CN(CCN(C)P(=O)(N(C)C)N(C)C)C(=O)CCCCCCCCCCS [Entry 1a]
fibrinogen
  % ML 30 min: 37 ±2%
  dR/dt on: 83 ±40 RU/sec
  % ML 3 min: 13 ±0.2%
  % Fib off: 29 ±0.4%
lysozyme; footnote b (30 minutes)
  % ML 3 min: 17 ±0.3%
lysozyme
  % ML 3 min: 4.5 ±0.1%
  dR/dt on: 330 ±110 RU/sec
  % Lys off: 240 ±2%

## CC(=O)N1CCN(C(=O)CCCCCCCCCCCCCCCS)CC1 [Entry 2a]
fibrinogen
  % ML 30 min: 2.2 ±0.1%
  dR/dt on: 22 ±10 RU/sec
  % ML 3 min: 0.7 ±0.0%
  % Fib off: 6.8 ±5%
lysozyme; footnote b (30 minutes)
  % ML 3 min: 0.8 ±0.2%
lysozyme
  % ML 3 min: 0.8 ±0.3%
  dR/dt on: 100 ±10 RU/sec
  % Lys off: 110 ±0%

## OCCOCCOCCOCCCCCCCCCCCS [Entry 3a, HOEG3(CH2)11SH, reference compound]
fibrinogen
  % ML 30 min: 0.2%
  % ML 3 min: 0.2%
lysozyme; footnote b (30 minutes)
  % ML 3 min: 0.2%
lysozyme
  % ML 3 min: 0.2%
